One series has as its target T1, OCT1 (Homo sapiens, UniProt O15245).
T1 construct: expressed in transfected cells
T1 sequence (O15245 1-554): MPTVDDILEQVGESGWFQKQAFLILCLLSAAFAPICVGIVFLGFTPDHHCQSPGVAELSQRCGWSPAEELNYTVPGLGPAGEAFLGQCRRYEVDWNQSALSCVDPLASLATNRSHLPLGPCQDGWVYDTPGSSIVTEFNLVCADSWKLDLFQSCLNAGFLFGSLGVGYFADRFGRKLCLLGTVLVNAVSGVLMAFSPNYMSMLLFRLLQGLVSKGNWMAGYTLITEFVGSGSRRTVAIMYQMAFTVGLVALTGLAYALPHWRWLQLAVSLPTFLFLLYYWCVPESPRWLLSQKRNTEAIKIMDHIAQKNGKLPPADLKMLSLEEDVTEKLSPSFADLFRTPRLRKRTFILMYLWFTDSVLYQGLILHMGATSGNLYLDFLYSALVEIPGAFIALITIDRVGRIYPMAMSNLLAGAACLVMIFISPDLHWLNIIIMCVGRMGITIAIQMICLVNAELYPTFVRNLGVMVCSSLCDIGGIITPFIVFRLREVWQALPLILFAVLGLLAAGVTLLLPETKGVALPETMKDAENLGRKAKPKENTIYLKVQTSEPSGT
Nature of the series: Inhibition of OCT1-mediated metformin uptake. It counts as cell-based. An excerpt: (§1) Generation, cultivation and characterization of human embryonic kidney (HEK) cells stably expressing OATP1B1 refseq (=OATP1B1*1a), OATP1B1*1b, OATP1B1*5 and OATP1B1*15 [18], OATP1B3 [19], OATP2B1 [13] and OCT1 [20] have been described previously. OATP1B1 cells were cultivated in minimal essential medium (Life Technologies, Paisley, UK) and OATP1B3, OATP2B1 and OCT1 cells were cultivated in Dulbecco’s modified Eagle medium (Sigma, Darmstadt, Germany). Cultivation media were supplemented with 10% fetal calf serum, 100 U/mL penicillin and 100 µg/mL streptomycin. Cells were grown at 37 °C and 5% CO2. Functionality of the cells was confirmed by measuring uptake of prototypic substrates (see Section 2.3 and supplementary material).
(§2) Prototypic substrate uptake was performed as described previously. For this, uptake solutions contained the respective substrate with tracer amounts of radiolabeled substrate. In case of inhibition studies, uptake solutions additionally contained different concentrations of remdesivir. […] Cells were then lysed with 0.2% sodium dodecyl sulfate and intracellular radioactivity was measured by liquid scintillation counting (Tricarb2800, PerkinElmer Life Sciences GmbH, Rodgau, Germany or Hidex 300SL TDCR liquid scintillation counter, Turku, Finland). […]

For a further series, the target named is T2, OATP2B1 (Homo sapiens, UniProt O94956).
T2 construct: expressed in transfected cells
T2 sequence (O94956 1-709): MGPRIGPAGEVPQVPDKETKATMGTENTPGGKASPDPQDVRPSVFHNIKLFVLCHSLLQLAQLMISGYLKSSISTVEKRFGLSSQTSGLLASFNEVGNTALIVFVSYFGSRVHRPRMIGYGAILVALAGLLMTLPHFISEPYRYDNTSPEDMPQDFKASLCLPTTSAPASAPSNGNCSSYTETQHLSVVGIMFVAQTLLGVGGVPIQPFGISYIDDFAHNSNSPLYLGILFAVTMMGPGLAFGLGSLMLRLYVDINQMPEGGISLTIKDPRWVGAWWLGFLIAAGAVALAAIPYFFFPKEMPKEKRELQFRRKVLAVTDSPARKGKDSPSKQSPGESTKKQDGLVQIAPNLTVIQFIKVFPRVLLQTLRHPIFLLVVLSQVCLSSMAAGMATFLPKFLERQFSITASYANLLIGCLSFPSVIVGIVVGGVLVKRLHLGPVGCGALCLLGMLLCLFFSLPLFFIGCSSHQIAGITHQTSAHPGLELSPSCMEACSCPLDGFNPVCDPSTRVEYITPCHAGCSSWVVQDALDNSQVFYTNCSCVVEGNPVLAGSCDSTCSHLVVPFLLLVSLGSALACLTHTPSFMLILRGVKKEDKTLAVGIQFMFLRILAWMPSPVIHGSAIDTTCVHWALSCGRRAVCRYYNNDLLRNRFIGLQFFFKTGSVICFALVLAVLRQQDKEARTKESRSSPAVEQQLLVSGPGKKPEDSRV
Description: Inhibition of OATP2B1-mediated estrone sulfate uptake. It counts as cell-based.
Description: as §1, §2

A further series concerns OATP1B3. More on the design: method as in earlier work. As to conditions: prototypic substrate not stated; cited from earlier work.

Each structure is given as a SMILES string.

For `CCC(CC)COC(=O)[C@H](C)N[P@](=O)(OC[C@H]1O[C@@](C#N)(c2ccc3c(N)ncnn23)[C@H](O)[C@@H]1O)Oc1ccccc1` [Remdesivir], the “Effect on prototypic substrate uptake” value is “significant concentration-dependent inhibitory effect” on OCT1 (5 µM metformin, 5 min uptake, different remdesivir concentrations) and “significant concentration-dependent inhibitory effect” on OATP2B1 (1 µM estrone sulfate, 30 sec uptake, different remdesivir concentrations). The “Transporter inhibition at 10 µM” value is “inhibition” at OCT1 (10 µM remdesivir, metformin as substrate) and “inhibition” at OATP2B1 (10 µM remdesivir, estrone sulfate as substrate). Also, in the series on OATP1B3, the 50% inhibitory concentration (IC50) is 2.1 µM.
